Test results published in PubChem BioAssay (NCI).
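Interpolation was linear, between the two tested concentrations surrounding the appropriate level; five concentrations were tested over 48 hours in 96-well plates. Abbreviation: GI50, concentration required for 50% inhibition of growth. Definition used: TGI = concentration required for complete inhibition of growth.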

Tests used:
Test in all cases: inhibition of tumour cell growth, NCI panel, 48 h
[1] = test system: ACHN renal
[2] = test system: BT-549 breast
[3] = test system: NCI-H23 lung
[4] = test system: OVCAR-4 ovarian
[5] = test system: OVCAR-8 ovarian
[6] = test system: PC-3 prostate
[7] = test system: SNB-75 CNS
[8] = test system: IGROV1 ovarian
[9] = test system: NCI-H460 lung
[10] = test system: MCF7 breast

| Structure (SMILES) | GI50 [1] | TGI [1] | GI50 [2] | TGI [2] | GI50 [3] | TGI [3] | GI50 [4] | TGI [4] | GI50 [5] | TGI [5] | GI50 [6] | TGI [6] | GI50 [7] | TGI [7] | TGI [8] | TGI [9] | GI50 [8] | GI50 [10] | TGI [10] | GI50 [9] |
| --- | --- | --- | --- | --- | --- | --- | --- | --- | --- | --- | --- | --- | --- | --- | --- | --- | --- | --- | --- | --- |
| CCN(CC)C(=S)SSC(C)C | 17.2 µM | 33.3 µM | 13.4 µM | 30.5 µM | 16.4 µM | 36 µM | 13.4 µM | 26.2 µM | 15.1 µM | 35.4 µM | 14.1 µM | 29.2 µM | 15.8 µM | 37.6 µM | – | – | – | – | – | – |
| COC(=O)C1C=CCC2CCCCC21N1CCCC1 (centres undefined) | – | > 100 µM | – | – | – | – | – | > 100 µM | – | > 100 µM | – | – | – | > 100 µM | > 100 µM | > 100 µM | – | – | – | – |
| COc1ccc(-c2ccc(CC(=O)O)cc2)cc1OC | – | > 100 µM | – | – | – | > 100 µM | – | > 100 µM | – | > 100 µM | – | – | – | > 100 µM | – | > 100 µM | – | – | – | – |
| O=C1CC23CCCCCCCCCCC2(C1)CC(=O)C3 (centres undefined) | – | > 100 µM | – | – | – | > 100 µM | – | – | – | > 100 µM | – | – | – | – | 83 µM | > 100 µM | – | – | – | – |
| Cn1c(=O)oc2cc(C3CCC(=O)N3Cc3csc(-c4ccccc4)n3)ccc21 (centres undefined) | – | > 100 µM | – | – | – | > 100 µM | – | > 100 µM | – | > 100 µM | – | – | – | > 100 µM | > 100 µM | > 100 µM | – | – | – | – |
| N/N=C(/Cc1ccccc1)NNO | – | > 100 µM | – | – | – | > 100 µM | – | > 100 µM | – | – | – | – | – | > 100 µM | > 100 µM | > 100 µM | – | – | – | – |
| CC(=O)N1[C@H](C(=O)O)CS[C@H]1c1ccc(F)cc1 | – | > 100 µM | – | – | – | > 100 µM | – | > 100 µM | – | > 100 µM | – | – | – | > 100 µM | > 100 µM | > 100 µM | – | – | – | – |
| O=C(CC1=Nc2nnc(CCCCCCCc3nnc4n3C(=O)C(CC(=O)c3ccc5ccccc5c3)=N4)n2C1=O)c1ccc2ccccc2c1 | – | > 100 µM | – | – | – | > 100 µM | – | > 100 µM | – | > 100 µM | – | – | – | > 100 µM | > 100 µM | > 100 µM | – | – | – | – |
| CN(C)C(=S)/N=c1\ss/c(=N\C(=S)N(C)C)n1-c1cccc(Cl)c1 | – | > 100 µM | – | – | – | > 100 µM | – | > 100 µM | – | > 100 µM | – | – | – | > 100 µM | > 100 µM | > 100 µM | – | – | – | – |
| COc1ccc(-n2cc(-c3ccc(OC)c(OC)c3)[nH]c2=O)cc1 | > 100 µM | > 100 µM | – | – | > 100 µM | > 100 µM | > 100 µM | > 100 µM | – | – | > 100 µM | > 100 µM | 12.1 µM | 99.3 µM | > 100 µM | > 100 µM | > 100 µM | > 100 µM | > 100 µM | > 100 µM |
| CN1CCCC2[C@@H]3CCC4c5nonc5CC[C@]4(C)C3CC[C@@]21C (some centres undefined) | – | > 100 µM | – | – | – | > 100 µM | – | > 100 µM | – | > 100 µM | – | – | – | > 100 µM | > 100 µM | > 100 µM | – | – | – | – |
| Cc1ccc(C2=CC(=O)c3ccccc3C2=O)n1-c1ccccc1 | – | – | – | – | – | > 100 µM | – | 96.6 µM | – | > 100 µM | – | – | – | > 100 µM | > 100 µM | > 100 µM | – | – | – | – |
| C1=CC(=P(c2ccccc2)(c2ccccc2)c2ccccc2)C=C1 | – | 28.2 µM | – | – | – | 54.3 µM | – | 31.5 µM | – | 69.2 µM | – | – | – | 20.8 µM | 24.6 µM | 26 µM | – | – | – | – |
| COc1cc2c(cc1C)NC(=O)/C2=C/c1ccnc2ccccc12 | 10.3 µM | 25.6 µM | 29.1 µM | > 50 µM | 25.5 µM | > 50 µM | – | – | 19.1 µM | > 50 µM | 7.07 µM | > 50 µM | – | – | > 50 µM | > 50 µM | 12.6 µM | 8.72 µM | > 50 µM | 15.3 µM |
| O=c1c2cccnc2ncn1CCCN1CCCCC1 | – | > 100 µM | – | – | – | > 100 µM | – | > 100 µM | – | > 100 µM | – | – | – | > 100 µM | > 100 µM | > 100 µM | – | – | – | – |
| Nc1cc2c3c(cccc3c1)C(=O)N(CCN1CCCC1)C2=O | – | – | 6.49 µM | 29.8 µM | 3.33 µM | 22.8 µM | 4.75 µM | 42.5 µM | 3.69 µM | > 100 µM | 3.89 µM | > 66.6 µM | 3.4 µM | 17 µM | > 100 µM | > 24.5 µM | 1.33 µM | 1.18 µM | 35.6 µM | 0.666 µM |
| CCC[CH2][Sn-]([CH2]CCC)([CH2]CCC)[O]C(=O)C(C)C | 0.142 µM | 0.273 µM | 0.135 µM | 0.312 µM | 0.115 µM | 0.31 µM | 0.0538 µM | 0.196 µM | 0.129 µM | 0.255 µM | 0.107 µM | 0.25 µM | – | – | 0.324 µM | 0.197 µM | 0.166 µM | – | – | 0.0571 µM |
| Cc1cccc(N2C(=O)/C(=C/C(Cl)=C/c3ccc([N+](=O)[O-])cc3)SC2=S)c1C | 1.43 µM | 2.75 µM | 1.61 µM | 4.08 µM | 1.84 µM | 4.38 µM | 1.46 µM | > 100 µM | 1.08 µM | > 100 µM | 1.39 µM | 4.93 µM | – | – | – | – | – | 0.786 µM | > 100 µM | – |
| CC1CCC2C(C)C(=O)OC2C2(C)C(=O)C=CC12 (centres undefined) | – | > 10 µM | – | – | – | > 10 µM | – | > 10 µM | – | > 10 µM | – | > 10 µM | – | > 10 µM | > 10 µM | > 10 µM | – | – | > 10 µM | – |
| O=C(c1ccccc1)C1N=NN(Cc2ccccc2[N+](=O)[O-])C1C(=O)c1ccccc1 (centres undefined) | – | > 100 µM | – | – | – | > 100 µM | – | > 100 µM | – | > 100 µM | – | – | – | > 100 µM | > 100 µM | > 100 µM | – | – | – | – |
| O=C(Nc1ccc(Cl)cc1C(F)(F)F)C(=O)Nn1c(=S)[nH]c2ccccc2c1=O | – | > 100 µM | – | > 100 µM | – | > 100 µM | – | > 100 µM | – | > 100 µM | – | > 100 µM | – | > 100 µM | – | > 100 µM | – | – | > 100 µM | – |
| O=C1NC(O)n2c(=O)[nH]c(=O)n21 (centres undefined) | – | > 100 µM | – | – | – | > 100 µM | – | > 100 µM | – | > 100 µM | – | – | – | > 100 µM | > 100 µM | > 100 µM | – | – | – | – |
| c1cnc2c(c1)-n1cccc1C1(CCCCC1)NN2 | – | > 100 µM | – | – | – | – | – | > 100 µM | – | > 100 µM | – | – | – | > 100 µM | – | > 100 µM | – | – | – | – |
